Measurements as given in patent US5776949A, “2-(1H) quinolinone compounds” (Adir et Compagnie, priority 1997, dated 1998).

What was measured:
[1] = system: glutamate-dependent convulsive attacks; experiment: Anti-convulsant activity in vivo: convulsions triggered by sound stimulus in DBA2 mice
Text: Likewise, in the DBA2 mice, glutamate-dependent convulsive attacks may be triggered by subjecting the animals to a sound stimulus of high frequency (14 kHz, 103 dB). The anticonvulsion effects are objectivated by the capacity to prevent convulsions arrival and the death which follows.

cerebral infarct = experiment: Antineurodegenerative activity in vivo: occlusion of the middle cerebral artery (MCA), infarct volume; conditions: rats; for reduction of cortical edematous infarct volume: 20 mg/kg i.v., 1 hour after arterial occlusion
Method: The occlusion of the sylvian artery (or middle cerebral artery MCA) is at the origin of about 70% of cases of cerebral vascular accidents in man. This type of cerebral ischemia may be reproduced very precisely in rats by intracerebral ligature of the MCA. This definitive occlusion causes, within 24 hours, the formation of a striatocortical infarct of identical location to that observed in a clinical situation. The infarct is perfectly delimited and is therefore histologically measurable. This infarct is of the edematous type. It changes within the following 3 days into a definitive necrotic infarct. The excessive liberation of glutamate is a major pathological feature for the genesis of the cerebral infarct. An antiischemic neuroprotective compound should prevent the formation of this infarct at 24 hours and on its necrotic maturation at 96 hours.
The compounds of the invention are compounds with a potent antiischemic effect, even during post-ischemic delayed treatment (treatment by the i.v. route 1 hour after the arterial occlusion). […] This is a major activity since it also prevents necrotic maturation. Thus, when a 3-day follow-up treatment (10 mg/kg i.p. twice per day) is carried out after the initial i.v. injection (20 mg/kg), the compound of Example 1decreases the volume of the terminal infarct by 44%.

AMPA receptor = experiment: AMPA-induced currents in Xenopus oocytes injected with rat cerebral cortex poly(A+) mRNA (2-electrode voltage-clamp); format: cell-based
Method: (§1) Their efficacy may be studied by means of electrophysiological techniques in vitro and especially by means of the measurement of the currents induced by the glutamatergic agonists in the oocyte of Xenopus.
(§2) Xenopus oocytes are injected with 50 ng of poly(A^+) mRNA isolated from rat cerebral cortex and incubated for 2 to 3 days at 18° C. so as to allow the protein expression thereof. The inflow of currents induced by the EAAs are measured in a medium of composition: NaCl (82.5 mM), KCl (2.5 mM), CaCl2 (1 mM), MgCl2 (1 mM), NaH2 PO4 (1 mM), HEPES (5 mM), pH 7.4 by the 2 electrode Voltage-clamp method (voltage=-60 mV). To measure the currents induced by NMDA and glycine, MgCl2 is absent from the medium and CaCl2 is supplied at the concentration of 2 mM. The EAA agonists inducing the currents are used at the following concentrations: kainate: 100 μM; AMPA: 30 μM; glycine/NMDA: 3/30 μM. The product studied is applied 30 seconds before and during the application of the agonist.

NMDA receptor = experiment: glycine/NMDA-induced currents in Xenopus oocytes injected with rat cerebral cortex poly(A+) mRNA (2-electrode voltage-clamp); format: cell-based; conditions: glycine/NMDA 3/30 μM; MgCl2 absent, CaCl2 2 mM; product applied 30 seconds before and during agonist
Method: as §1, §2

| SMILES | inhibition of mortality ([1]; 50 mg/kg i.p., 30 minutes before sound stimulus) | ED50 ([1]; Mus musculus, ip, 0.5 h, i.p. 30 minutes before sound stimulus (14 kHz, 103 dB), read-out: ED50 (anticonvulsant protection)) | anticonvulsant effects (in words) ([1]; i.p. 30 minutes before sound stimulus) | decrease of the volume of the terminal infarct (cerebral infarct; 20 mg/kg i.v. then 3-day follow-up 10 mg/kg i.p. twice per day) | reduction of cortical edematous infarct volume (cerebral infarct) | solubility in water (in words) (Solubility in water) | IC50 (AMPA receptor; AMPA 30 μM, voltage -60 mV, product applied 30 seconds before and during agonist) | selectivity for the AMPA receptor (AMPA receptor; AMPA versus NMDA, Xenopus oocytes) | IC50 (NMDA receptor) |
| --- | --- | --- | --- | --- | --- | --- | --- | --- | --- |
| O=c1[nH]c2cc([N+](=O)[O-])ccc2cc1S(=O)(=O)O [Example 1, 7-Nitro-2-(1H)-quinolinone-3-sulfonic acid] | more than 80% | 26.9 mg/kg | strongly protects the animals | 44% | 45% |  |  |  |  |
| O=c1[nH]c2cc([N+](=O)[O-])c([N+](=O)[O-])cc2cc1S(=O)(=O)O [Example 2, 6,7-Dinitro-2-(1H)-quinolinone-3-sulfonic acid] |  |  |  |  | 27% | soluble in water | 0.2 µM | 40 times | 8 µM |
